In this experiment the target is T1, NLRP3 inflammasome (Homo sapiens, UniProt Q96P20).
T1 construct: endogenous in cells; host or cells: THP-1 cells, PMA-differentiated and stimulated with LPS and ATP
Put plainly: THP-1 IL-1β production inhibition test. Format: cell-based. The settings on record: PMA-treated THP-1 cells, LPS 50 ng/ml + ATP 5 mM, 2 hours, IL-1β in supernatant by ELISA. The method, then: Test Example 1: THP-1 IL-1β Production Inhibition Test
PMA (phorbol myristate acetate, SIGMA, P1585) was added to THP-1 cells in an amount of 50 ng/mL to culture the cells for 2 days at 37° C. The culture medium was replaced with a serum-free RPMI-1640 medium, and a compound with a known concentration was added thereto to culture the cells at 37° C. for 15 minutes. LPS (Lipopolysaccharide, SIMGA, L2880) and ATP (Adenosine triphosphate, SIGMA, A2383) were added so that final concentrations become 50 ng/ml and 5 mM, respectively, followed by culturing at 37° C. for 2 hours. The supernatants were collected to measure the concentrations of IL-1β by ELISA (DuoSet ELISA human IL-1β, R&D Systems, DY201). The IL-1β concentrations were plotted against log concentrations of test compounds, and an IC50 value was calculated by sigmoid Emax model nonlinear regression analysis.
Example compounds were confirmed to inhibit NLRP3 inflammasome activation and IL-1β production.
A general note: In an ELISA, binding on a coated surface is turned into a signal by an enzyme label.

pIC50: −log10 of the molar value. Structures can show the parent of a compound that is named as a salt.

T1 sequence (Q96P20 whole entry): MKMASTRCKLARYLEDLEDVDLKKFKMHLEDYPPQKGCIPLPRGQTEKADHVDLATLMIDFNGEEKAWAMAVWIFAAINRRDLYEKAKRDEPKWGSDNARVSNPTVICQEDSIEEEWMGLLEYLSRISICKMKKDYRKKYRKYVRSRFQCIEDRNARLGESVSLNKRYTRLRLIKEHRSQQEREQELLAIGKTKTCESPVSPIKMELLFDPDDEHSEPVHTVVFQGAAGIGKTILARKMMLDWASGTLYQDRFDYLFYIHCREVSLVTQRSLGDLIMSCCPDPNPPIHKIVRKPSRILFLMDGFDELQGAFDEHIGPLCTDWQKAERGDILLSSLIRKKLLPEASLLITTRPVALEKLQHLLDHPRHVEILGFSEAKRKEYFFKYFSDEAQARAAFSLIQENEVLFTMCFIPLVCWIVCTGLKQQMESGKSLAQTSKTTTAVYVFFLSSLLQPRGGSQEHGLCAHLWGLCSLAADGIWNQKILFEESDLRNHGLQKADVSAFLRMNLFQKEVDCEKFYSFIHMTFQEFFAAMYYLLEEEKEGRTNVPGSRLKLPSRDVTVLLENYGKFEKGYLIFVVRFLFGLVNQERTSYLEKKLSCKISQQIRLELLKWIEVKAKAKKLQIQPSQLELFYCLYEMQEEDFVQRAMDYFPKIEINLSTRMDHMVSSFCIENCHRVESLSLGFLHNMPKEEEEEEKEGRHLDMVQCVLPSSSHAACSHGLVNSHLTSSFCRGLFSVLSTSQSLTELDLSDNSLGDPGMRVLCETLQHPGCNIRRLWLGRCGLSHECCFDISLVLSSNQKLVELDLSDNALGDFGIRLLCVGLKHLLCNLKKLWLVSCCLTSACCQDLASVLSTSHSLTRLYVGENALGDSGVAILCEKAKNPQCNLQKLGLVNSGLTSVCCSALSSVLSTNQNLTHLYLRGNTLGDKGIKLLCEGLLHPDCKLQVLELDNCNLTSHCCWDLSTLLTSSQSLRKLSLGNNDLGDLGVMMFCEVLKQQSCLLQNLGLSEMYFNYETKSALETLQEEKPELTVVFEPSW

As a reminder, the pIC50 is −log10 of the IC50, conventionally taken in molar units. In the case of `Cc1c(-c2ccc(C(F)(F)F)cc2O)nnc2c1CCCN2[C@@H]1CCCC[C@H]1O` [Example 1, 2-{8-[(1R,2R)-2-hydroxycyclohexyl]-4-methyl-5,6,7,8-tetrahydropyrido[2,3-c]pyridazin-3-yl}-5-(trifluoromethyl)phenol], the pIC50 is 7.80.

Consider `Cc1c(-c2ccc(C(F)(F)F)cc2O)nnc2c1CCCN2[C@@H]1CCCN(C)C1` [Example 2, 2-{4-methyl-8-[(3R)-1-methylpiperidin-3-yl]-5,6,7,8-tetrahydropyrido[2,3-c]pyridazin-3-yl}-5-(trifluoromethyl)phenol], for which the negative logarithm of the IC50 (pIC50) is 8.20.

Turning to `CCN1CCC[C@@H](N2CCCc3c2nnc(-c2ccc(C(F)(F)F)cc2O)c3C)C1` [Example 3, 2-{8-[(3R)-1-ethylpiperidin-3-yl]-4-methyl-5,6,7,8-tetrahydropyrid[2,3-c]pyridazin-3-yl}-5-(trifluoromethyl)phenol], the negative logarithm of the IC50 (pIC50) was 8.52.

Turning to `Cc1c(-c2ccc(C(F)(F)F)cc2O)nnc2c1COCCN2[C@@H]1CCCC[C@H]1O` [Example 4, 2-{9-[(1R,2R)-2-hydroxycyclohexyl]-4-methyl-5,7,8,9-tetrahydropyridazino[3,4-e][1,4]oxaazepin-3-yl}-5-(trifluoromethyl)phenol], the pIC50 is 8.17.

As to `Cc1c(-c2ccc(C(F)(F)F)cc2O)nnc2c1CCN2[C@H]1CCNC1=O` [Example 5, (3S)-3-{3-[2-hydroxy-4-(trifluoromethyl)phenyl]-4-methyl-5,6-dihydro-7H-pyrrolo[2,3-c]pyridazin-7-yl}pyrrolidin-2-one], the negative logarithm of the IC50 (pIC50) is 7.89.

As for `COc1ccc(-c2nnc3c(c2C)COCCN3[C@@H]2CCCN(C)C2)c(O)c1` [Example 6, 5-methoxy-2-{4-methyl-9-[(3R)-1 methylpiperidin-3-yl]-5,7,8,9-tetrahydropyridazino[3,4-e][1,4]oxaazepin-3-yl}phenol], the negative logarithm of the IC50 (pIC50) is 7.85.

For the compound `Cc1c(-c2ccc(C(F)(F)F)cc2O)nnc2c1CN(C)CCN2[C@@H]1CCCC[C@H]1O` [Example 7, 2-{9-[(1R,2R)-2-hydroxycyclohexyl]-4,6-dimethyl-6,7,8,9-tetrahydro-5H-pyridazino[3,4-e][1,4]diazepin-3-yl}-5-(trifluoromethyl)phenol], the pIC50 was 7.80.

Consider `CC(=O)N1CCC[C@@H](N2CCCc3c2nnc(-c2ccc(C(F)(F)F)cc2O)c3C)C1` [Example 8], for which the pIC50 was 7.59.

With `Cc1c(-c2ccc(C(F)(F)F)cc2O)nnc2c1CCCN2[C@@H]1CCCN(C2COC2)C1` [Example 9], the pIC50 was 7.46.

For the compound `Cc1c(-c2ccc(OC(F)(F)F)cc2O)nnc2c1CCCN2[C@@H]1CCCN(C)C1` [Example 10], the pIC50 is 7.31.

In the case of `Cc1ccc(-c2nnc3c(c2C)CCCN3[C@@H]2CCCN(C)C2)c(O)c1` [Example 11], the negative logarithm of the IC50 (pIC50) was 7.34.

With `Cc1c(-c2ccc(C(F)(F)F)cc2O)nnc2c1CCCCN2[C@@H]1CCCC[C@H]1O` [Example 12], the pIC50 was 7.36.

As to `Cc1c(-c2ccc(C(F)(F)F)cc2O)nnc2c1CCCN2[C@@H]1CCCNC1=O` [Example 13], the pIC50 was 7.52.

With `Cc1c(-c2ccc(C(F)(F)F)cc2O)nnc2c1CCCN2[C@@H]1CCCN(C)C1=O` [Example 14], the pIC50 was 7.66.

With `Cc1c(-c2ccc(C(F)(F)F)cc2O)nnc2c1CCCN2[C@H]1CNC(=O)C1` [Example 15], the pIC50 was 6.11.

In the case of `Cc1c(-c2ccc(C(F)(F)F)cc2O)nnc2c1CCCN2[C@@H]1CCN(C)C[C@H]1O` [Example 16], the negative-log IC50 (pIC50) is 5.72.

`CN[C@@H]1CCCC[C@H]1N1CCCc2c1nnc(-c1ccc(C(F)(F)F)cc1O)c2C` [Example 17]: the pIC50 is 6.39.

Consider `Cc1cc(C(F)(F)F)cc(O)c1-c1cc2c(nn1)N([C@@H]1CCCC[C@H]1O)CCC2` [Example 18], for which the negative-log IC50 (pIC50) is 7.82.

With `Cc1c(-c2ccc(Cl)cc2O)nnc2c1COCCN2[C@@H]1CCCC[C@H]1O` [Example 19], the pIC50 was 7.52.

With `Cc1c(-c2ccc(C(F)(F)F)cc2O)nnc2c1CCN2C[C@@H](C)O` [Example 20], the negative logarithm of the IC50 (pIC50) was 6.70.

Regarding `COC1CCN([C@@H]2CCCC[C@H]2O)c2nnc(-c3ccc(C(F)(F)F)cc3O)c(C)c21` (some centres unmarked) [Example 21], the pIC50 was 7.80.

For the compound `Cc1c(-c2ccc(C(F)(F)F)cc2O)nnc2c1CCCN2[C@@H]1CC[C@H](C#N)C1` [Example 22], the negative-log IC50 (pIC50) is 6.92.

In the case of `Cc1c(-c2ccc(C(F)(F)F)cc2O)nnc2c1CN(Cc1ccccc1)CCN2[C@@H]1CCCC[C@H]1O` [Example 23], the pIC50 was 6.60.

With `CC(=O)NCCCCN1CCOCc2c1nnc(-c1ccc(C(F)(F)F)cc1O)c2C` [Example 25], the pIC50 is 7.40.

Take `Cc1c(-c2ccc(C(F)(F)F)cc2O)nnc2c1COCCN2[C@@H]1CCCN(CC(F)F)C1` [Example 26]: the negative-log IC50 (pIC50) is 7.85.

As for `Cc1c(-c2ccc(C(F)(F)F)cc2O)nnc2c1CCCN2[C@@H]1CCCN(CCO)C1` [Example 27, 2-{8-[(3R)-1-(2-hydroxyethyl)piperidin-3-yl]-4-methyl-5,6,7,8-tetrahydropyrid[2,3-c]pyridazin-3-yl}-5-(trifluoromethyl)phenol dihydrochloride], the negative logarithm of the IC50 (pIC50) was 7.38.

As to `Cc1c(-c2ccc(OC(F)F)cc2O)nnc2c1CCCN2[C@@H]1CCCC[C@H]1O` [Example 28, 5-(difluoromethoxy)-2-{8-[(1R,2R)-2-hydroxycyclohexyl]-4-methyl-5,6,7,8-tetrahydropyrido[2,3-c]pyridazin-3-yl}phenol], the pIC50 is 8.09.

Regarding `Cc1c(-c2ccc(OC(F)F)cc2O)nnc2c1CCCN2[C@@H]1CCOC[C@H]1O` [Example 29, (3S,4R)-4-{3-[4-(difluoromethoxy)-2-hydroxyphenyl]-4-methyl-6,7-dihydropyrido[2,3-c]pyridazin-8(5H)-yl}oxan-3-ol], the negative logarithm of the IC50 (pIC50) was 7.89.

Take `Cc1c(-c2ccc(OC(F)F)cc2O)nnc2c1COCCN2[C@@H]1CCCC[C@H]1O` [Example 30, 5-(difluoromethoxy)-2-{9-[(1R,2R)-2-hydroxycyclohexyl]-4-methyl-5,7,8,9-tetrahydropyridazino[3,4-e][1,4]oxaazepin-3-yl}phenol]: the pIC50 was 8.02.

`Cc1c(-c2ccc(C(F)(F)F)cc2O)nnc2c1CCCN2[C@@H]1CCCN(C2CC2)C1` [Example 31, 2-{8-[(3R)-1-cyclopropylpiperidin-3-yl]-4-methyl-5,6,7,8-tetrahydropyrido[2,3-c]pyridazin-3-yl}-5-(trifluoromethyl)phenol]: the pIC50 was 7.92.

As to `COC(=O)N1CCC[C@@H](N2CCCc3c2nnc(-c2ccc(C(F)(F)F)cc2O)c3C)C1` [Example 32, (3R)-3-{3-[2-hydroxy-4-(trifluoromethyl)phenyl]-4-methyl-6,7-dihydropyrido[2,3-c]pyridazin-8(5H)-yl}piperidine-1-methyl carboxylate], the negative-log IC50 (pIC50) is 7.02.

As for `Cc1c(-c2ccc(C(F)(F)F)cc2O)nnc2c1CCCN2[C@@H]1CCCN(C(N)=O)C1` [Example 33, (3R)-3-{3-[2-hydroxy-4-(trifluoromethyl)phenyl]-4-methyl-6,7-dihydropyrido[2,3-c]pyridazin-8(5H)-yl}piperidin-1-carboxyamide], the negative logarithm of the IC50 (pIC50) is 7.26.

Take `Cc1c(-c2ccc(C(F)(F)F)cc2O)nnc2c1CCCN2[C@@H]1CCCN(S(C)(=O)=O)C1` [Example 34, 2-{8-[(3R)-1-(methansulfonyl)piperidin-3-yl]-4-methyl-5,6,7,8-tetrahydropyrido[2,3-c]pyridazin-3-yl}-5-(trifluoromethyl)phenol]: the pIC50 was 7.43.

`Cc1c(-c2ccc(C(F)(F)F)cc2O)nnc2c1CCN2[C@H]1C[C@@](C)(O)C1` [Example 35, 2-{7-[(1s,3s)-3-hydroxy-3-methylcyclobutyl]-4-methyl-6,7-dihydro-5H-pyrrolo[2,3-c]pyridazin-3-yl}-5-(trifluoromethyl)phenol]: the negative logarithm of the IC50 (pIC50) is 7.36.

Regarding `Cc1c(-c2ccc(C(F)(F)F)cc2O)nnc2c1CN(C)CN2[C@@H]1CCCC[C@H]1O` [Example 36, 2-{8-[(1R,2R)-2-hydroxycyclohexyl]-4,6-dimethyl-5,6,7,8-tetrahydropyrimido[4,5-c]pyridazin-3-yl}-5-(trifluoromethyl)phenol], the negative-log IC50 (pIC50) is 7.96.

With `Cc1c(-c2ccc(C(F)(F)F)cc2O)nnc2c1CNC(=O)N2[C@@H]1CCCC[C@H]1O` [Example 37, 8-[(1R,2R)-2-hydroxycyclohexyl]-3-[2-hydroxy-4-(trifluoromethyl)phenyl]-4-methyl-5,8-dihydropyrimido[4,5-c]pyridazin-7 (6H)-one], the pIC50 was 6.64.

Consider `Cc1c(-c2ccc(C(F)(F)F)cc2O)nnc2c1CNCCN2[C@@H]1CCCC[C@H]1O` [Example 38, 2-{9-[(1R,2R)-2-hydroxycyclohexyl]-4-methyl-6,7,8,9-tetrahydro-5H-pyridazino[3,4-e][1,4]diazepin-3-yl}-5-(trifluoromethyl)phenol], for which the negative-log IC50 (pIC50) was 8.12.

As to `CC(=O)O[C@@H]1CCCC[C@H]1N1CCN(C(C)=O)Cc2c1nnc(-c1ccc(C(F)(F)F)cc1O)c2C` [Example 39, (1R,2R)-2-{6-acetyl-3-[2-hydroxy-4-(trifluoromethyl)phenyl]-4-methyl-5,6,7,8-tetrahydro-9H-pyridazino[3,4-e][1,4]diazepin-9-yl}cyclohexyl acetate], the pIC50 was 6.80.

Values taken from patent US20260209233A1, “ANNULATED PYRIDAZINE DERIVATIVE” (Tenvie Therapeutics, Inc., priority 2022, published 2026).
